# Measured values as given in paper PMC5772236, “In Vitro Enzymatic Depolymerization of Lignin with Release of Syringyl, Guaiacyl, and Tricin Units” (Applied and Environmental Microbiology, 2018).
# What was measured:
# Assay type in all cases: biochemical
# AvGR = biological target: T1, AvGR (Allochromatium vinosum, UniProt D3RSV1); assay: coupled assay with and without AvGR, HPLC of products; details: 25 mM Tris, 2% DMSO, pH 8.0; NADH formed in situ by LigD/LigN; GSSG co-substrate
# T1 construct: gene Alvin_1323; recombinant, E. coli B834, codon optimized, pVP302K; N-terminal His tag cut by Tev protease
# T1 sequence (D3RSV1 1-458): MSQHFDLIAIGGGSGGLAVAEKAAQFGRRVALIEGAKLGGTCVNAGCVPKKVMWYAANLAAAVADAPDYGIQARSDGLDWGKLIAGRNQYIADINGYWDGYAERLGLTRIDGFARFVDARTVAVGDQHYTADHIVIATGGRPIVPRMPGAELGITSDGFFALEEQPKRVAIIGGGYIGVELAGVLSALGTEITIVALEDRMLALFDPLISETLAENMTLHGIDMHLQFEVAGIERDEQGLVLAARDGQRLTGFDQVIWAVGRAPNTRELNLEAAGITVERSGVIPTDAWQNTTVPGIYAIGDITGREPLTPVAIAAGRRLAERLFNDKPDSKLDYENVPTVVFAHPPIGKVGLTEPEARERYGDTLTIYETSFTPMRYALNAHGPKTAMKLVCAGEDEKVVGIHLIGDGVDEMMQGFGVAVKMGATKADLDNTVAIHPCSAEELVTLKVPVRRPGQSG
# LigG = biological target: T2, LigG (Sphingomonas paucimobilis, UniProt Q9WXJ9); assay: coupled assay, HPLC of products; details: 25 mM Tris, 2% DMSO, pH 8.0, GSH co-substrate; GS-HPV formed in situ by LigD/LigN/LigE/LigF; epimers not both completely cleaved
# T2 construct: recombinant, E. coli, codon optimized; His tag cut by Tev protease (procedure cited)
# T2 sequence (Q9WXJ9 1-265): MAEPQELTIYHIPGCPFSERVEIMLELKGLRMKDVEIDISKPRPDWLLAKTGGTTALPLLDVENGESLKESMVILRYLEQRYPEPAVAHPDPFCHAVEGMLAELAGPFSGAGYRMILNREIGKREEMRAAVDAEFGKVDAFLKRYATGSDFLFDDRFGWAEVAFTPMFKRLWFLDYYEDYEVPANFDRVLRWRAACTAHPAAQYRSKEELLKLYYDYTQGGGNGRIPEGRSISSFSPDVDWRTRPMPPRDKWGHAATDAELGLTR
# NaGSTNU = biological target: T3, NaGSTNU (Novosphingobium aromaticivorans, UniProt Q2G542); assay: coupled assay with and without enzyme, HPLC of products; details: 25 mM Tris, 2% DMSO, pH 8.0, GSH co-substrate; GS-HPV formed in situ by LigD/LigN/LigE/LigF; both beta-epimers cleaved
# T3 construct: gene Saro_2595; recombinant, E. coli B834; N-terminal His tag cut by Tev protease; cloned from genomic DNA
# T3 sequence (Q2G542 1-288): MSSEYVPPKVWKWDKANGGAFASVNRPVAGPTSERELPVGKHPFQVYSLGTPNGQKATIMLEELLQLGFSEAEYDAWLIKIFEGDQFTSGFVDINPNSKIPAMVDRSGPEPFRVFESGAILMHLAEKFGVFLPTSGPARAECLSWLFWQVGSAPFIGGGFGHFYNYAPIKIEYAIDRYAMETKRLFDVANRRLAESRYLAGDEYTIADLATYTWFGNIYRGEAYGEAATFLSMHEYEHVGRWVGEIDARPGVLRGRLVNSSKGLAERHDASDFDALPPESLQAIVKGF
SMILES,"coupled assay with and without AvGR, HPLC of products (AvGR)","coupled assay, HPLC of products (LigG)","coupled assay with and without enzyme, HPLC of products (NaGSTNU)"
NC(=O)C1=CN([C@@H]2O[C@H](COP(=O)(O)OP(=O)(O)OC[C@H]3O[C@@H](n4cnc5c(N)ncnc54)[C@H](O)[C@@H]3O)[C@@H](O)[C@H]2O)C=CC1 [NADH],the presence of AvGR is sufficient to recycle the cosubstrates NAD^+ and GSH,,
"COc1cc(C(=O)C(CO)SC[C@H](NC(=O)CC[C@H](N)C(=O)O)C(=O)NCC(=O)O)ccc1O (mixture of isomers) [GS-HPV, β-S-glutathionyl-γ-hydroxypropiovanillone]",,LigG is not able to completely cleave both β-epimers of GS-HPV in vitro,the absence of NaGSTNU prevented the conversion of GS-HPV to HPV
